The values below come from publication PMC5329948, “Caspase vinyl sulfone small molecule inhibitors prevent axonal degeneration in human neurons and reverse cognitive impairment in Caspase-6-overexpressing mice” (Molecular Neurodegeneration, 2017).

This experiment concerns the target T1, recombinant active site-titrated Casp6 (Homo sapiens, UniProt P55212).
T1 construct: human Casp6 large subunit (amino acids 24-179, flanked by start (ATG) and stop (TAA) codons); small subunit (amino acids 194-293, preceded by a start codon); initiator Met (added start codon) (N); His; made in house; host or cells: E. coli BL21(DE3)pLysS
Nature of the experiment: IC50 on in-house recombinant active site-titrated Casp6 (Ac-VEID-AFC fluorogenic assay). The settings on record: 20 nM Casp6, 5 min preincubation at room temperature, 10 μM Ac-VEID-AFC; read-out: IC50 against recombinant active site-titrated Casp6. The format is biochemical. On the procedure:
Recombinant Casp6 Expression and purification: Casp6 was expressed from the pET23b(+)-Casp6-His plasmid in E. coli BL21(DE3)pLysS strain (Promega, Fitchburg, WI, USA) at 37 °C in 2xYT medium (16 g/l tryptone, 10 g/l yeast extract, 5 g/l NaCl) supplemented with 0.1 mg/ml ampicillin and 0.034 mg/ml chloramphenicol under vigorous shaking according to [46]. Casp6 expression was induced with 50 μM isopropyl β-D-1-thiogalactopyranoside (IPTG) when cell cultures reached OD595 nm of 0.6 and cells cultured at 22 °C for 16 h under vigorous shaking. […] The lysate was clarified by centrifugation (30,000 x g for 30 min at 4 °C) and loaded on Ni Sepharose Fast Flow 6 medium (GE Healthcare Life Sciences, Baie D’Urfe, QC, CA) pre-equilibrated with buffer A, washed with buffer B (50 mM Tris pH 8.5, 500 mM NaCl, 5% glycerol, 20 mM imidazole), and bound proteins eluted with a 50-300 mM linear imidazole gradient in buffer A. Fractions were assessed for recombinant Casp6 purity by SDS-PAGE and Coomassie blue staining. […] Protein concentration was measured using Quick Start Bradford 1x Dye Reagent (Bio-Rad Laboratories, Hercules, CA, USA). Active site titration assay: The concentration of Casp6 active sites was determined by active site titration assay using Z-VAD-fmk (N-benzyloxycarbonyl-Val-Ala-Asp-(O-methyl)-fluoromethylketone, MP Biomedicals, Santa Ana, CA, USA) inhibitor [46]. […]

T1 sequence (P55212 24-179): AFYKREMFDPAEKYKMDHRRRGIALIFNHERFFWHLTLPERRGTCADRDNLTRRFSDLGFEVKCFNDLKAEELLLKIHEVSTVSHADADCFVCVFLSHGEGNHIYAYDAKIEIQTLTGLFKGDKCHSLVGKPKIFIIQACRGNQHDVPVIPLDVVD
T1 sequence (P55212 194-293): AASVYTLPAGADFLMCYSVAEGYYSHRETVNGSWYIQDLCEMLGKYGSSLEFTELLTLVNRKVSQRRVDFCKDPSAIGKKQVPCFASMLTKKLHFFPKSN

With `CCC(C)[C@H](NC(=O)[C@H](CCC(=O)O)NC(=O)[C@@H](NC(=O)OCc1ccccc1)C(C)C)C(=O)N[C@H](/C=C/S(C)(=O)=O)CC(=O)O` (some centres unmarked) [NWL-117], the IC50 turned out to be 192 nM.

With `CCC(C)[C@H](NC(=O)[C@H](CCC(=O)O)NC(=O)[C@@H](NC(=O)OCc1ccccc1)C(C)C)C(=O)N[C@H](/C=C(\Cl)S(C)(=O)=O)CC(=O)O` (some centres unmarked) [NWL-154], the 50% inhibitory concentration (IC50) was 100 nM.

By IC50 is commonly meant the point on the concentration scale where inhibition reaches its midpoint.
